Series [1] in a line: Solubility test (artificial intestinal juice pH 6.8, 1% DMSO). The class given is physicochemical. To be noted: artificial intestinal juice pH 6.8 with 1% DMSO, fassgf or other biorelevant, kinetic from dmso stock, 25° C. The method, then: The solubility of a compound was determined under a condition in which 1% DMSO was added. 10 mmol/L compound solution was prepared using DMSO, and then 6 μL of the compound solution was added to 594 μL of artificial intestinal juice in pH 6.8 (to 250 mL of 0.2 mol/L potassium dihydrogen phosphate reagent solution was added 118 mL of 0.2 mol/L NaOH reagent solution and water to provide a final volume of 1000 mL). After standing at 25° C. for 16 hours, the mixed solution was filtered with suction. The filtrate was diluted twice with methanol/water (1/1), and then a concentration in the filtration was measured with HPLC or LC/MS/MS by the absolute calibration method.

For series [2], the target named is T1, human ether-a-go-go related gene (hERG) channel (Homo sapiens, UniProt Q12809).
T1 construct: expressed in transfected cells; host or cells: HEK293
The series is described as follows: hERG test (whole-cell patch-clamp, IKr in HEK293 cells). The class given is cell-based. The note with it: inhibition of maximum tail current (IKr), HEK293 cell expressing hERG, compound 1 μM, 10 minutes; 1 µM. In short, it runs like this:
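hERG-expressing HEK293 cells, automated whole-cell patch clamp: hold −80 mV, +50 mV for 2 s, then −50 mV for 2 s to record IKr tail current. Compound in extracellular solution (pH 7.4) for 10 min at room temperature; inhibition of maximum tail current calculated versus pre-application and compared with 0.1% DMSO vehicle.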
On the technique in general: The hERG channel carries a current that helps repolarise heart muscle cells.

A short description of series [3]: Metabolic stability test (pooled human liver microsome). The series is classed as in vitro ADME. To be noted: percentage of test compound remained after 30 minutes, pooled human liver microsome 0.5 mg protein/mL, 1 mmol/L NADPH, 37° C., compound 0.5 μM. Summed up:
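Pooled human liver microsomes (0.5 mg protein/mL) incubated with compound and 1 mmol/L NADPH at 37° C. in pH 7.4 Tris buffer for 0 or 30 min. Parent quantified by LC/MS/MS after methanol/acetonitrile quench; value is % remaining at 30 min versus 0 min.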
For orientation: Microsomes from liver hold many membrane-bound enzymes, among them those of drug oxidation.

The target of another series is PI3Kδ (Homo sapiens, UniProt O00329). Description: PI3Kδ inhibitory activity (Ki value). The series is classed as biochemical. The method, then: According to Example 2 above, after 80 μg/mL PI-3 kinase γ of the enzyme solution (80 μg/mL PI-3 kinase γ, 10 mmol/L MgCl2, 5 mmol/L DTT) was changed to 158 μg/mL PI-3 kinase δ, a method similar to the method for measuring PI3Kγ inhibitory activity was used to calculate an inhibition ratio, which was defined as the PI3Kδ inhibitory activity.
According to Example 4 above, a Km value for PI3Kδ was determined to calculate a Ki value.

The next series deals with PI3Kα (Homo sapiens, UniProt P42336). Description: PI3Kα inhibitory activity (Ki value). The series is classed as biochemical. Summed up: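 Enzyme solution held 0.8 μg/mL PI3Kα with 10 mmol/L MgCl2 and 5 mmol/L DTT; inhibition ratio obtained as for the PI3Kγ assay. Ki calculated using a separately determined Km for PI3Kα.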
Series [4] can be described thus: BA test (oral absorbability, bioavailability). The series is classed as in vivo. The method, then:
An experimental material and a method for examining oral absorbability
(1) Animals used: rats or mice were used. (2) Breeding condition: chow and sterilized tap water were allowed to be taken in freely. (3) Setting of a dosage and grouping: a predetermined dosage was administered orally or intravenously. Groups were formed as shown below. (A dosage varied depending on each compound)
Oral administration 1-30 mg/kg (n=2 to 3)
Intravenous administration 0.5-10 mg/kg (n=2 to 3)
(4) Preparation of administered liquid: In oral administration, a solution or suspension was administered. In intravenous administration, after solubilization, the administration was performed. (5) Method of Administration: In oral administration, compulsory administration to the stomach was conducted using an oral probe. In intravenous administration, administration from the caudal vein was conducted using a syringe with an injection needle. (6) Evaluation item: Blood was chronologically collected, and then the drug concentration in blood plasma was measured using a LC/MS/MS. (7) Statistical analysis: With regard to a shift in plasma concentration, the plasma concentration-time area under the curve (AUC) was calculated using a nonlinear least-squares program WinNonlin®. Bioavailability (BA) was calculated from the AUCs of the oral administration group and the intravenous administration group, respectively.

Where [5] appears, read: class symbols, read-out: PI3K δ Ki.
The mark [6] stands for this setting: class symbols, read-out: PI3K α Ki.

Structures are written as SMILES. Converted amounts (≈) assume the structure as drawn. Like-named read-outs stand apart in the source and are kept apart here. Some results are limits rather than exact numbers.

Chain of PI3Kδ (O00329 whole entry, species assumed): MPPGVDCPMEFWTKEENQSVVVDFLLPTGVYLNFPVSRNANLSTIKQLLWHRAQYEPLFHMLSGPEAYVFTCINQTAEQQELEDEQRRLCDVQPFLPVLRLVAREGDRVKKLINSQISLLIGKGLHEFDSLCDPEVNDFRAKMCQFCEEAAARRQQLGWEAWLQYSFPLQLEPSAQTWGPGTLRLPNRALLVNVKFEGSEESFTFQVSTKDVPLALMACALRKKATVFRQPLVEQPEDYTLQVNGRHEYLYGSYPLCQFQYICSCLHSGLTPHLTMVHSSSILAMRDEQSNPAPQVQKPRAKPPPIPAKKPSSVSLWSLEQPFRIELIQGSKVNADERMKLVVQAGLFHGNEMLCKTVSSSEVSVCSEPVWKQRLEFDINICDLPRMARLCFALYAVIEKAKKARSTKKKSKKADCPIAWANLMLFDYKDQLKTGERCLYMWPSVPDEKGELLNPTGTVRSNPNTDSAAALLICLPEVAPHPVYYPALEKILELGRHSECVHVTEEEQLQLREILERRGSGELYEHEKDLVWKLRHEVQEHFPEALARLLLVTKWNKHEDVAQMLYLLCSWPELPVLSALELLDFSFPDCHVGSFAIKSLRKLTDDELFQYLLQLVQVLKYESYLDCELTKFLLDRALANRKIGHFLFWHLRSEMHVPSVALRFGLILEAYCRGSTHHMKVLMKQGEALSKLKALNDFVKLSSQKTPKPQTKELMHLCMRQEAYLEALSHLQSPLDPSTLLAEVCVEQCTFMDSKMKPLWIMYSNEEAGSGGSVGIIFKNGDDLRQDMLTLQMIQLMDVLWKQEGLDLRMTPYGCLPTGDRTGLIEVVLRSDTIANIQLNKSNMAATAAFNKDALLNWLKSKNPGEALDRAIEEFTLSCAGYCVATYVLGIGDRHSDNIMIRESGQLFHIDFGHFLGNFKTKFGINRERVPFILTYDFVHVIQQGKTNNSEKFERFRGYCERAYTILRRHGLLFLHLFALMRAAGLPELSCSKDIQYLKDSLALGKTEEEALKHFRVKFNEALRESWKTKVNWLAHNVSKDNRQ
Chain of PI3Kδ (P27986 whole entry partner, species assumed): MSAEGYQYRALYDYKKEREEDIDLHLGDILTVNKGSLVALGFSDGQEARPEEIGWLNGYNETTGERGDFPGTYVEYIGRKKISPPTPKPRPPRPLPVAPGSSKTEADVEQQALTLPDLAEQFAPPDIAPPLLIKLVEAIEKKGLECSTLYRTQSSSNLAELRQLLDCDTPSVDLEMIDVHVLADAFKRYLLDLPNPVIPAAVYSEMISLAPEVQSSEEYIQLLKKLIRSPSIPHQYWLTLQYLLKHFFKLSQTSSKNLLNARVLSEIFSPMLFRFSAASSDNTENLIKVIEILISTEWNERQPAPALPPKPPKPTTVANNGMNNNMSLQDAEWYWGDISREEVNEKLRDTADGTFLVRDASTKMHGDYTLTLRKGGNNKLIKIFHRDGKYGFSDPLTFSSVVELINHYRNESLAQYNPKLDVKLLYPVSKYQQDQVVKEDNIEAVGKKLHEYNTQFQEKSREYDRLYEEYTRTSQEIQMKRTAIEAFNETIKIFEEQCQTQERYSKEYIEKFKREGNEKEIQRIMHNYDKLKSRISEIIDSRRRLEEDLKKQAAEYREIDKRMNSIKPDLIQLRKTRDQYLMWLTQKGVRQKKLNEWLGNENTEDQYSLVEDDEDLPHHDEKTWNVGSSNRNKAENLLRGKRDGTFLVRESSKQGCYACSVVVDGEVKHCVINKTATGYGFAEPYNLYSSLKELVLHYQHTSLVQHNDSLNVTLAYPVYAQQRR
Chain of PI3Kα (P42336 whole entry, species assumed): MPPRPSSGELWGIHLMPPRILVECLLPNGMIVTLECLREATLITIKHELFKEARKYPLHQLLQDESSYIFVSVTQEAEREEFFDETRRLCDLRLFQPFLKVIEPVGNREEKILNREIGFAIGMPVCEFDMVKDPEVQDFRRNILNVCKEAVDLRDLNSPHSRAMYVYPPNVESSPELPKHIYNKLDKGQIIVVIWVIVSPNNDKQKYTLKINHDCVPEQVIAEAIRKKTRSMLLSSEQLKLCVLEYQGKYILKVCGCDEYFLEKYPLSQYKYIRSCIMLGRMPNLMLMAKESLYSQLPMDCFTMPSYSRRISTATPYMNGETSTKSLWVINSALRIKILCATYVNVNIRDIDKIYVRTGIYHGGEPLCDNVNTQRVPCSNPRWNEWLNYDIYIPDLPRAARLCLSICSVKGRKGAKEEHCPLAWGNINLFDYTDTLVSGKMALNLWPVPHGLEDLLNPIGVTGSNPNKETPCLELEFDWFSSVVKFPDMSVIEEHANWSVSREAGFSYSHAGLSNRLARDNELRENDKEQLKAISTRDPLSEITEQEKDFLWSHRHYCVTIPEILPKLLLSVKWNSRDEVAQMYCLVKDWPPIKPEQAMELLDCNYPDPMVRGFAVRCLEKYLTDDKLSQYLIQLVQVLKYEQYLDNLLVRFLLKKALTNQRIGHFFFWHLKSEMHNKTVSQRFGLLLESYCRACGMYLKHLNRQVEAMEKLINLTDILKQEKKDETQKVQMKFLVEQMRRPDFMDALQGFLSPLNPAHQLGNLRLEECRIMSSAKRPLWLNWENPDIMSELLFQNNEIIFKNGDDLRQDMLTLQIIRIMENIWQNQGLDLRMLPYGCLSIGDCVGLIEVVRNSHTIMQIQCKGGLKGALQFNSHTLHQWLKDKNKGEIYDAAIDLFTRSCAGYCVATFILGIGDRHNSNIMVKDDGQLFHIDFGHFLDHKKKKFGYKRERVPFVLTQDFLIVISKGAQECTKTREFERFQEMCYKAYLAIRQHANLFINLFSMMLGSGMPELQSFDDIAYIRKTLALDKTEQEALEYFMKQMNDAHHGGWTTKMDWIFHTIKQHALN
Chain of PI3Kα (P27986 whole entry partner, species assumed): as the sequence (P27986 whole entry partner, species assumed) above
T1 sequence (Q12809 whole entry): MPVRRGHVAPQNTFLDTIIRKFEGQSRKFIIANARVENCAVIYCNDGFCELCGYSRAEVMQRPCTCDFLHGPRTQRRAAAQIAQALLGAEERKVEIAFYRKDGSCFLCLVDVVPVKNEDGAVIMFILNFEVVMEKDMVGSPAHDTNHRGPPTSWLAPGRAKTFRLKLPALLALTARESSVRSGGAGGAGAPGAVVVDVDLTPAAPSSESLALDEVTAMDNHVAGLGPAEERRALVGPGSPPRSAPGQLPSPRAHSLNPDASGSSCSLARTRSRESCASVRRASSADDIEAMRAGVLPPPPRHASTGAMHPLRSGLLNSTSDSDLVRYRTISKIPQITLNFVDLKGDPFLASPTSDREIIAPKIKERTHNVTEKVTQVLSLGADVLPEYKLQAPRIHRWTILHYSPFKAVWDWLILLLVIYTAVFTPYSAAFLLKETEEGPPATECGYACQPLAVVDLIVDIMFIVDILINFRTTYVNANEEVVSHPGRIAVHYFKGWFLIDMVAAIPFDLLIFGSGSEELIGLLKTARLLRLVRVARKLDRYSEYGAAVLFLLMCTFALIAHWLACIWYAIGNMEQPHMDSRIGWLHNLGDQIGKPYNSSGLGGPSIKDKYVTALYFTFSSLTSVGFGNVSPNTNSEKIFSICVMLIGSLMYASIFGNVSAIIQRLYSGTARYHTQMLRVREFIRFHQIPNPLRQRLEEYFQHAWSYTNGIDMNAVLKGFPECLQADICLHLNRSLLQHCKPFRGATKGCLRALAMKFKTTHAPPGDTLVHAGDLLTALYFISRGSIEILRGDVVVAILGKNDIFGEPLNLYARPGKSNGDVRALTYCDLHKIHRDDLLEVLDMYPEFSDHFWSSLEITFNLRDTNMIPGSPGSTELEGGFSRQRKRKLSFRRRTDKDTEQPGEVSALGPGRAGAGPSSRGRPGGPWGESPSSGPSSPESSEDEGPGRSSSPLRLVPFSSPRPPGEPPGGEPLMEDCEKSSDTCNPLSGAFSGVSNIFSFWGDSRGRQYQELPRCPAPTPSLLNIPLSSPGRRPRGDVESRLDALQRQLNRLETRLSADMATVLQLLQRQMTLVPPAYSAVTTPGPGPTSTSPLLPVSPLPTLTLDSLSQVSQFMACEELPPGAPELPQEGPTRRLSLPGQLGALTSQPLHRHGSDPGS

One may read the solubility as the dissolved amount per volume that the medium holds. A lower solubility goes with a poorly soluble substance. In turn, `CC(C)NC(=O)c1ccccc1NC(=O)Nc1nc2c(s1)CN(c1cccc(S(C)(=O)=O)c1)CC2` [Compound I-198] came in with a solubility at 16 h in series [1] of 10.1 µM (≈ 5.19 µg/mL).

In the case of `COc1cc(N2CCc3nc(NC(=O)Nc4ccccc4C(=O)NC(C)C(O)C(F)(F)F)sc3C2)nc(OC)n1` (centres unmarked) [Compound I-139], the “hERG(at 1 μM) % Inhibition” value in series [2] is listed as 8.5%. Further, the “hLMS_ox(at 0.5 μM) %” value in series [3] was 84.8%.

As usually defined, the Ki is the equilibrium dissociation constant of an inhibitor or competing ligand from its target. With `COc1cncc(-c2ccc3nc(NC(=O)Nc4ccccc4OCCC(C)C)cn3n2)c1` [Compound I-114], the Ki on PI3Kδ (setting [5]) was at most 3 µM; at PI3Kδ (read-out: PI3Kδ Ki value), 2 µM; at PI3Kα (setting [6]), at most 3 µM; at PI3Kα (read-out: PI3Kα Ki value), 1.1 µM.

In the case of `COc1cc(N2CCc3nc(NC(=O)Nc4cn(C)nc4C(=O)NCC(F)(F)F)sc3C2)nc(OC)n1` [Compound I-148], the “BA (Rat, 1 mg/kg, Methylcellulose suspension Oral Administration)” value in series [4] was found to be 45.1%. In addition, in series [3], the “hLMS_ox(at 0.5 μM) %” value is 87.9%. The Ki at PI3Kδ (setting [5]) was at most 0.3 µM; on PI3Kα (setting [6]), at most 3 µM.

On to `COc1cc(N2CCc3nc(NC(=O)Nc4ccccc4C(=O)NCCF)sc3C2)nc(OC)n1` [Compound I-88], for which the “hLMS_ox(at 0.5 μM) %” value in series [3] is on record as 88.2%.

Turning to `COc1nc(Cl)cc(N2CCc3nc(NC(=O)Nc4ccccc4C(=O)NC4CCCOC4)sc3C2)n1` (centres unmarked) [Compound I-197], the Ki at PI3Kδ (setting [5]) and on PI3Kα (setting [6]) was over 3 µM throughout.

As for `CC(C)NC(=O)c1ccccc1NC(=O)Nc1nc2c(s1)CN(c1cncc(C(F)(F)F)c1)CC2` [Compound I-131], the Ki on PI3Kδ (setting [5]) and on PI3Kα (setting [6]) was over 3 µM throughout.

In the case of `COc1cc(N2CCc3nc(NC(=O)Nc4ccccc4C(=O)NN4CCN(C)CC4)sc3C2)nc(OC)n1` [Compound I-195], the solubility at 16 h in series [1] is over 50 µM. Moreover, in series [3], the “hLMS_ox(at 0.5 μM) %” value came to 110%.

As for `COc1cc(N2CCc3nc(NC(=O)Nc4ccccc4C(=O)NC(C)C)sc3C2)nc(OC)n1` [Compound I-12], the “BA (Rat, 1 mg/kg, Methylcellulose suspension Oral Administration)” value in series [4] came out at 46.8%. For the same compound, the Ki at PI3Kδ (setting [5]) was at most 3 µM; on PI3Kδ (read-out: PI3Kδ Ki value), 0.59 µM; on PI3Kα (setting [6]), over 3 µM; on PI3Kα (read-out: PI3Kα Ki value), over 12 µM.

As to `Cc1nc(NC(=O)Nc2ccccc2C(=O)NC(C)C)sc1-c1ccc(S(C)(=O)=O)c(F)c1` [Compound I-127], in series [3], the “hLMS_ox(at 0.5 μM) %” value worked out at 92.6%. Further, the Ki on PI3Kδ (setting [5]) was at most 0.3 µM; on PI3Kδ (read-out: PI3Kδ Ki value), 0.081 µM; at PI3Kα (setting [6]), over 3 µM; at PI3Kα (read-out: PI3Kα Ki value) it was over 7 µM.

Regarding `COc1nc(Cl)cc(N2CCc3nc(NC(=O)Nc4cnccc4C(=O)NC(C)C)sc3C2)n1` [Compound I-91], the Ki is at most 3 µM at PI3Kδ (setting [5]) and over 3 µM at PI3Kα (setting [6]).

Turning to `COc1cc(N2CCc3nc(NC(=O)Nc4ccccc4C(=O)NC4CCOCC4)sc3C2)nc(OC)n1` [Compound I-203], the “hLMS_ox(at 0.5 μM) %” value in series [3] was found to be 88.5%.

In the case of `COc1cncc(-c2cc(NC(=O)Nc3ccccc3C(=O)NC(C)C)nn2C)c1` [Compound I-226], the “hLMS_ox(at 0.5 μM) %” value in series [3] was 82.5%. Besides, the Ki at PI3Kδ (setting [5]) was at most 3 µM; on PI3Kα (setting [6]), over 3 µM.

In series [1], `Cc1nc(NC(=O)Nc2ccccc2C(=O)NC(C)C)sc1-c1csc(S(=O)(=O)N(C)CCN(C)C)c1` [Compound I-191] displayed a solubility at 16 h of over 50 µM.

Values taken from US20120071475A1, “UREA DERIVATIVES HAVING PI3K-INHIBITING ACTIVITY” (SHIONOGI & CO., LTD., priority 2009, published 2012).
